In ChEMBL document CHEMBL5303304, “EUbOPEN Chemogenomics Library - IncuCyte” (2023):

Legend:
Assay type in all cases: toxicity, cell-based
HEK-293T = assay: Incucyte cell viability with HEK293T; details: human, 10 µM, compound concentration 10 uM
Fibroblast = assay: Incucyte cell viability with human fibroblast; details: 10 µM, compound concentration 10 uM
U2OS = assay: Incucyte cell viability with U2OS; details: human, 10 µM, compound concentration 10 uM
Note: unitless GR value; below 1 slowed growth and below 0 cell loss.

Row | SMILES | Growth Rate (HEK-293T; 0 h, replicate number 2) | Growth Rate (HEK-293T; 6 h, replicate number 1) | Growth Rate (HEK-293T; 12 h, replicate number 1) | Growth Rate (HEK-293T; 18 h, replicate number 1) | Growth Rate (HEK-293T; 24 h, replicate number 1) | Growth Rate (Fibroblast; 6 h, replicate number 2) | Growth Rate (Fibroblast; 12 h, replicate number 2) | Growth Rate (Fibroblast; 18 h, replicate number 2) | Growth Rate (Fibroblast; 24 h, replicate number 2) | Growth Rate (U2OS; 0 h, replicate number 1) | Growth Rate (U2OS; 6 h, replicate number 1) | Growth Rate (U2OS; 18 h, replicate number 2) | Growth Rate (Fibroblast; 0 h, replicate number 1) | Growth Rate (Fibroblast; 0 h, replicate number 2) | Growth Rate (Fibroblast; 6 h, replicate number 1) | Growth Rate (Fibroblast; 18 h, replicate number 1) | Growth Rate (U2OS; 6 h, replicate number 2) | Growth Rate (Fibroblast; 24 h, replicate number 1) | Growth Rate (U2OS; 0 h, replicate number 2) | Growth Rate (U2OS; 24 h, replicate number 2) | other results
1 | CCc1nc(C2CCC2)n2nc(-c3ccccc3)[nH]c(=O)c12 | -0.05 | -0.09 | 0.44 | 0.64 | 0.75 | -0.72 | -0.29 | 0.5 | 0.86 | 0.68 | 0.84 | 0.95 | – | – | – | – | – | – | – | – | Growth Rate (HEK-293T; 12 h, replicate number 2): 0.76; Growth Rate (HEK-293T; 18 h, replicate number 2): 0.76; Growth Rate (HEK-293T; 24 h, replicate number 2): 0.91
2 | CO[C@@H](C)CN1CC[C@]2(C)c3cc(O)ccc3C[C@H]1C2(C)C.Cl | 0.15 | – | – | – | – | – | 0.89 | – | – | 0.91 | 0.69 | – | -1 | -0.8 | 0.93 | 1 | 0.47 | – | – | – | Growth Rate (U2OS; 12 h, replicate number 1): 0.82
3 | CC1(C)CCN(C(=O)C2CN(c3c4c(nc5ccnn35)CCNCC4)C2)C1.O=C(O)C(F)(F)F | 0.61 | -0.5 | 0.45 | 0.87 | 0.96 | – | 0.82 | 0.86 | 0.96 | – | 0.78 | – | – | – | – | – | – | 0.98 | – | – | –
4 | CN(C)[C@H]1CCN(c2cc(C(F)(F)F)c(C#N)c(Nc3cccc(CCC(=O)O)c3)n2)C1.O=C(O)C(F)(F)F | 0.79 | 0.73 | 0.95 | 0.94 | – | -0.53 | 0.75 | 0.93 | 0.72 | 0.61 | 0.63 | 0.89 | – | – | 0.81 | 0.99 | 0.38 | – | 0.54 | 0.88 | Growth Rate (U2OS; 12 h, replicate number 2): 0.78
5 | CC(C)N(C(=O)C1CCOCC1)c1cc(F)c(Oc2ncc(Cn3nccn3)cc2C(F)(F)F)cc1C(=O)O | 0.61 | – | – | – | – | – | – | – | – | 0.83 | 0.91 | 0.98 | 0.24 | -0.36 | 0.7 | – | – | – | – | 0.93 | Growth Rate (Fibroblast; 12 h, replicate number 1): 0.85
6 | Cn1c(C(=O)N[C@@H](CO)c2ccc(C(=O)O)cc2)cc2cc(Cl)ccc21 | 0.28 | 0.78 | – | – | 0.96 | -0.6 | 0.49 | 0.69 | 0.68 | 0.76 | 0.58 | – | – | 0.3 | – | – | – | 1 | – | – | Growth Rate (U2OS; 24 h, replicate number 1): 0.92
7 | CN1CCN(C(=O)c2ccc(N(C)c3ncc(C(F)(F)F)c(N[C@@H]4CCC[C@@H]4C(N)=O)n3)cc2)CC1.Cl | 0.56 | 1 | 0.91 | – | – | -0.99 | -0.02 | 0.35 | 0.9 | – | – | – | – | – | – | – | – | – | – | 1 | Growth Rate (HEK-293T; 6 h, replicate number 2): 0.56
8 | N#Cc1ccc(C#CC[C@@H](C#N)NC(=O)[C@H]2CCCCN2)cc1F.O=C(O)C(F)(F)F | -0.1 | – | – | – | – | – | – | – | – | – | 0.86 | 0.73 | -1 | – | 0.94 | 0.86 | 0.95 | 0.92 | 0.12 | 0.73 | Growth Rate (U2OS; 12 h, replicate number 2): 0.78
9 | COc1cccc(-c2c(C)c(Cc3c(F)cccc3C(F)(F)F)c3n(c2=O)[C@@H]([C@@H](N)c2ccccc2)CS3)c1F | -0.28 | – | – | 0.72 | 0.6 | -0.66 | 0.73 | – | 0.87 | 0.81 | 0.48 | 0.91 | -1 | – | 0.51 | 0.92 | 0.4 | 0.83 | -0.8 | 0.93 | Growth Rate (HEK-293T; 12 h, replicate number 2): 0.52; Growth Rate (HEK-293T; 18 h, replicate number 2): 0.5; Growth Rate (HEK-293T; 24 h, replicate number 2): 0.46; Growth Rate (U2OS; 12 h, replicate number 1): 0.52; Growth Rate (U2OS; 12 h, replicate number 2): 0.75; Growth Rate (U2OS; 18 h, replicate number 1): 0.62; Growth Rate (U2OS; 24 h, replicate number 1): 0.37
